# Reference: patent US20240415828A1, “TLR7 AGONIST AND COMBINATIONS FOR CANCER TREATMENT” (BIONTECH SE, priority 2021, published 2024)
# Experiments:
# Human PBMCs = test: In vitro human PBMC stimulation assay (IFNα, multiplexed CBA); type: cell-based; conditions: 24 h after stimulation, n=5
# Procedure: FIG. 1. In vitro human PBMC stimulation assay. […] Data shown as mean±standard deviation (SD), n=5.
# After performing a serial dilution of the test compounds (such as BNT411), 5 μL of each sample is transferred/pipetted to single wells of a 96-well-plate. As negative control, plasma which has been prepared from whole blood of each donor is used. Subsequently, 245 μL of RPMI-medium is added to each well, leading to a 1:50 dilution of each sample, named spiking solutions. The heparinized whole blood is pipetted to separate 96-well-plate. After seeding whole blood, the prepared spiking solutions are added: 190 μL of whole blood is seeded in each well and 10 μL of spiking solutions is added to get a final volume of 200 μL per well and additional 1:20 dilution of all samples. Finally, the plates are incubated at 37° C. and 5% CO2. After 24 h incubation the plates are centrifuged at 500×g for 5 min. The plasma of all samples is harvested, transferred to a new 96-well-plate and frozen at −15° C. to −25° C. until performing the CBA, but at least 3 h.
# The CBA is performed with the frozen/thawed plasma samples according to the manufacturer's instructions for ProCarta multiplex kits. For evaluation of cytokine concentrations, assay duplicates of all samples are measured by using the luminex system. […]
# BALB/c mice = test: In vivo cytokine release in BALB/c mice (IFNa ELISA); set-up: species or system mouse; conditions: 3 mg/kg retro-orbital vs 5, 10, 15 mg/kg; blood 1 h after application
# Procedure: FIG. 2. In vivo cytokine release in BALB/c mice upon administration of BNT411. Female BALB/c mice were retro-orbitally administered with doses of 3, 5, 10, and 15 mg/kg BNT411. Blood samples were drawn 1 h after compound application and analyzed with mouse IFNa ELISA.
# Serum levels of IFNα were measured by sandwich ELISA (Pbl Assay Systems) according to manufacturer's instructions.
# Female BALB/c mice were retro-orbitally administered with doses of 3, 5, 10, and 15 mg/kg BNT411. Blood samples were drawn 1 h after compound application and analyzed with mouse IFNa ELISA.
# [1] = test system: CT26 colon carcinoma cells; test: CT26 tumor model, BNT411 alone and with anti-PD-L1 antibody (Example 5); type: in vivo; conditions: no adverse clinical effects, higher toxicities, or body weight loss
# Procedure: FIG. 6. Anti-tumoral efficacy of BNT411 alone and in combination with an anti-PD-L1 antibody in a tumor mouse model. Mice (n=10 per group) subcutaneously inoculated with 5×10^5 CT26 colon carcinoma cells were used as tumor mouse model. The anti-PD-L1 antibody anti-PD-L1-mIgG1e3 was administered intraperitoneally (i.p.) at a dose level of 200 μg per animal. BNT411 was administered i.v. at a dose level of 3 mg/kg. All treatments were delivered once every five days for a total of six doses. Body weight changes and tumor growth were assessed on study day 21 when there were at least nine animals alive in each group. (A) Dosing schedule. (B) Graph showing the tumor volumes vs. study day. Mean tumor volume±SEM (mm^3) is depicted for each treatment. Last observations were carried forward until day 35 when only the animal who cleared the tumor was left. […]
# BALB/c mice were inoculated s.c. with 2.5×10^5−5×10^5 CT26-WT into the flank, respectively. […] Tumor volume was measured unblinded with a caliper and calculated using the formula (a×b^2)/2 (a being the largest and b being the smallest diameter of the tumor). […]
# Four groups of 10 animals were inoculated with 1×10^6 CT26 cells per animal into the dorsal right flank (day 0). […] Body weight changes and tumor growth were assessed on study day 21 when there were at least nine animals alive in each group. […]
smiles,measurement,setting,value
COCCc1nc2c(N)nc3ccccc3c2n1CCCCN(C(C)=O)C1CCOCC1 [BNT411],"amount of IFNα induced compared to imiquimod (R837), resiquimod (R848) and 852A",Human PBMCs,significantly higher amount
same,"concentrations inducing IFNα, fold lower compared to imiquimod (R837), resiquimod (R848) and 852A",Human PBMCs,10 to 30 fold
same,IFNa secretion,BALB/c mice,stronger IFNa secretion as compared to higher BNT411 doses
same,tolerability throughout treatment,[1],well tolerated
